According to US9408915B2, “Tolvaptan solid dispersion and its preparation method” (Jiangsu Hengrui Medicine Co., Ltd., priority 2010, dated 2016):

Columns and labels:
[1] = white crystal or crystalline powder; cited from earlier work
[2] = Dissolution test (paddle blade method, 0.2% w/v sodium dodecylsulfate aqueous solution); assay type: physicochemical; conditions: powder equal to 100 mg tolvaptan, paddle 100 rpm
Description: Q.S. (the amount is equal to 100 mg of tolvaptan) of the powder prepared in Examples 1-10, Comparative examples and the control (crystal material with a particle diameter distribution of 1400 μm and an average diameter of 83 μm) were added to the dissolution tester. 0.2% w/v sodium dodecylsulfate aqueous solution was used as the solvent. The dissolution test was performed using the paddle blade method with the rotation speed of 100 rpm. A sample was taken at 5 min, 10 min, 15 min, 20 min, 30 min, and 45 min to determine the absorbance and calculate the dissolution rate.
The determination of the dissolution rate (%) is as follows: dissolve a certain amount of tolvaptan in methanol; transfer 5 ml of the solution to a 100-ml volumetric flask and then dilute with 0.2% (w/v) sodium dodecylsulfate aqueous solution to give a 20 μg/ml standard solution; the absorbance of the standard solution and the sample solution was determined at wavelengths of 269 nm and 330 nm. The dissolution rate can be obtained by the ratio of the difference of the absorbance of standard solution and the control and the difference of the absorbance of the sample solution and control.

Row | dissolution rate ([2]; 5 min) [%] | dissolution rate ([2]; 10 min) [%] | dissolution rate ([2]; 15 min) [%] | dissolution rate ([2]; 20 min) [%] | dissolution rate ([2]; 30 min) [%] | dissolution rate ([2]; 45 min) [%] | SMILES | solubility in water [1]
1 |  |  |  |  |  |  | Cc1ccccc1C(=O)Nc1ccc(C(=O)N2CCC[C@@H](O)c3cc(Cl)ccc32)c(C)c1 [Tolvaptan, 7-chloro-5-hydroxy-1-[2-methyl-4-(2-methylbenzoylamino)benzoyl]-2,3,4,5,-tetrohydro-1H-benzoazepine] | only slightly soluble in water
2 | 15.9 | 19.1 | 22.2 | 25.8 | 30.7 | 42.8 | Cc1ccccc1C(=O)Nc1ccc(C(=O)N2CCC[C@@H](O)c3cc(Cl)ccc32)c(C)c1 [compound 1] | 
